Experimental data published in patent US12366579B2, “Sulfur-heterocycle exchange chemistry and uses thereof” (University of Virginia Patent Foundation, priority 2019, dated 2025).
“Also recorded” adds a separate entry of the source. Each block holds one compound with its values, some of them ahead of it.

Tests used:
EDC3 = EDC3 (Homo sapiens, UniProt Q96F86); experiment: Chemical proteomics analysis of EDC3 using EKT-231 and HHS-465; assay type: binding; conditions: FIG. 46B
Excerpt: FIGS. 46A and 46B: Inhibition of mRNA decapping protein 3 (EDC3) Y475 by EKT-231. FIG. 46A is a schematic drawing of the chemical structure of EKT-231. FIG. 46B is a series of graphs showing the chemical proteomics analysis of EDC3 using EKT-231 and HHS-465.
In addition, SuTEx fragment EKT231 (see FIG. 46A) modifies EDC3 at tyrosine 475.

DM93 soluble proteomes = experiment: Proteome-wide competitive chemical proteomics of SuTEx fragments vs HHS-482; assay type: binding, human; conditions: fragment 50 μM, 30 min, 37° C.
YWHAE (Y49) = molecular target: T1, YWHAE (Y49) (Homo sapiens, UniProt P62258); experiment: Competitive chemical proteomics of SuTEx fragments vs HHS-482, YWHAE site; assay type: binding; conditions: fragment 50 μM, 30 min, 37° C.
T1 construct: endogenous in cells; host or cells: DM93 melanoma cells, soluble proteome (lysate)
T1 sequence (P62258 whole entry, the tested form may be a part): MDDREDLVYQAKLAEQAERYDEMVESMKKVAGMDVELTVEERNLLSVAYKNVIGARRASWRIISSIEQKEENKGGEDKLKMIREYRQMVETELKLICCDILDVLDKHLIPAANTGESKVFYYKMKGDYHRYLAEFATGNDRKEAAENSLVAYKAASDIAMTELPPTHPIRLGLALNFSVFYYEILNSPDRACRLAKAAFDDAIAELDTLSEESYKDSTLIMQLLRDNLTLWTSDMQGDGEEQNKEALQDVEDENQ
Experimental: (§1) Heavy and light proteomes (432 μl of each) were diluted to 2.3 mg ml^−1 in PBS and sample aliquots (432 μl) were treated with SuTEx fragment at the indicated concentrations (5 μl, 100× stock in DMSO), mixed gently and incubated for 30 min at 37° C. Samples were then treated with HHS-482 (5 μL, 5 mM stock in DMSO) for 30 min at 37° C. Probe-modified proteomes were conjugated to desthiobiotin-PEG3-azide followed by enrichment of probe-modified peptides for nano-electrospray ionization-LC-MS/MS analyses as previously described^57.
(§2) The chemical proteomic method for functional tyrosine profiling^72 was tailored to investigate AG/LG effects on SuTEx fragment reactivity in complex proteomes. In brief, isotopically light and heavy soluble proteomes from DM93 melanoma cells cultured by stable isotopic labeling by amino acids in cell culture (SILAC^80) media were used for quantitative liquid chromatography-mass spectrometry (LC-MS) studies. […] Proteomes were digested with trypsin protease, HHS-482-modified peptides enriched by avidin chromatography and analyzed by high-resolution LC-MS/MS and bioinformatics as described hereinabove.
(§3) To evaluate substituent effects on proteome activity, reactivity profiles of each respective SuTEx fragment were compared across >1500 total distinct HHS-482-modified tyrosine sites from >650 detected proteins. […]

human DPP3 (hDPP3) = molecular target: T2, human DPP3 (hDPP3) (Homo sapiens, UniProt Q9NY33); experiment: Gel-based competitive chemical proteomic screen with HHS-482, recombinant hDPP3-HEK293T soluble proteomes; assay type: binding; conditions: 50 μM fragment, 37° C., 30 min
T2 construct: FLAG (C); host or cells: HEK293T, transient transfection; soluble proteome used unpurified
T2 sequence (Q9NY33 1-737): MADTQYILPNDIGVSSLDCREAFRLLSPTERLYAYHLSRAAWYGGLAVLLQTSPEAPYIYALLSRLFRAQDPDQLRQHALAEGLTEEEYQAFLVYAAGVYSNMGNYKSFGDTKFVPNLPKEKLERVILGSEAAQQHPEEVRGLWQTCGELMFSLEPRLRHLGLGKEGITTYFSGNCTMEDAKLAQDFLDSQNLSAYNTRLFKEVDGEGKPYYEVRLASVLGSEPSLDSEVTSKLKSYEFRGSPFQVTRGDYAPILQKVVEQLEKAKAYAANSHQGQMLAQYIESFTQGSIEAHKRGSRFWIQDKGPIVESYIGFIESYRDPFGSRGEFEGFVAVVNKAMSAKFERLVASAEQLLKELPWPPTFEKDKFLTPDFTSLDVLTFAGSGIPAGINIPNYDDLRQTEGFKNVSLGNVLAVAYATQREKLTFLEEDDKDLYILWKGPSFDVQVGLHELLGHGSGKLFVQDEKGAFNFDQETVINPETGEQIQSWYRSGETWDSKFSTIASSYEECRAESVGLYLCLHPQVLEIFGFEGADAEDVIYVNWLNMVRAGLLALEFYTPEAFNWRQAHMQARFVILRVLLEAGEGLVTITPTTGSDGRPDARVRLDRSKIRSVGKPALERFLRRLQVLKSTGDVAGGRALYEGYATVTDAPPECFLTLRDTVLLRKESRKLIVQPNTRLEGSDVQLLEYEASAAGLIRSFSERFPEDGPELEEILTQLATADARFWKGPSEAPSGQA
Experimental: (§4) Gel-Based Chemical Proteomic Assay
(§5) Cell pellets were lysed in PBS and fractionated (100,000×g, 45 min, 4° C.) to generate soluble and membrane fractions. Protein concentrations were determined using Bio-Rad DC protein assay (Bio-Rad Laboratories, Inc., Hercules, California, United States of America), and adjusted to 1 mgml^−1 in PBS. Proteome samples (49 μl aliquots) were treated with DMSO vehicle or indicated concentration of SuTEx fragment (1 μL, 50× stock in DMSO) for 30 min at 37° C. Samples were then treated with HHS-482 probe (1 μL, 2.5 mM stock in DMSO) for 30 min at 37° C. Probe labeled samples were conjugated to rhodamine-azide (1 μL, 1.25 mM stock; final concentration of 25 μM) by copper-catalyzed azide-alkyne cycloadditions (CuAAC) for 1 h at room temperature followed by SDS-PAGE and in-gel fluorescence scanning as previously described^57.

purified DPP3 = molecular target: T3, purified DPP3 (Homo sapiens, UniProt Q9NY33); experiment: DPP3 biochemical substrate assay (Arg-Arg β-naphthylamide peptidase assay)
T3 sequence (Q9NY33 1-737): T2 sequence (Q9NY33 1-737)
Experimental: DPP3 Biochemical Substrate Assay
Substrate assays were performed using purified DPP3 protein diluted to 5 ng/μL in assay buffer. DPP3 samples (10 μl) were diluted to 85 μl with assay buffer and transferred to a black 96-well plate. Samples were treated with a 50× stock of SuTEx-fragment at indication concentration for 30 min at 37° C. A stock solution of DPP3 substrate (Arg-Arg β-naphthylamide trihydrochloride, 0.5 mM: Sigma-Aldrich. St, Louis, Missouri, United States of America) was diluted to 100 μM in assay buffer. Substrate solution (5 μl) was added to each sample. Samples were mixed briefly by shaking and reaction monitored in kinetic mode by measuring fluorescence at 450 nm for 10 min on a BMG Labtech CLARIOstar plate reader (BMG Labtech, Cary, North Carolina, United States of America).

DPP3 Y417 = molecular target: T4, DPP3 Y417 (Homo sapiens, UniProt Q9NY33); experiment: Quantitative LC-MS chemical proteomics of recombinant human DPP3-HEK293T soluble proteome; assay type: binding; conditions: 50 μM fragment, 37° C., 30 min
T4 construct: FLAG (C); host or cells: HEK293T, transient transfection; soluble proteome used unpurified
Experimental: Preparation of SILAC Proteomes for Liquid Chromatography-Tandem Mass Spectrometry ([…]) Analysis
as §1
Identification of peptides and proteins from tandem mass spectrometry analyses was accomplished using bioinformatics software and quality control criteria as previously described^57.

PLD3 (Y437) = molecular target: T5, PLD3 (Y437) (Homo sapiens, UniProt Q8IV08); experiment: Competitive chemical proteomics of SuTEx fragments vs HHS-482, PLD3 site; assay type: binding; conditions: fragment 50 μM, 30 min, 37° C.
T5 construct: endogenous in cells; host or cells: DM93 melanoma cells, soluble proteome (lysate)
T5 sequence (Q8IV08 whole entry, the tested form may be a part): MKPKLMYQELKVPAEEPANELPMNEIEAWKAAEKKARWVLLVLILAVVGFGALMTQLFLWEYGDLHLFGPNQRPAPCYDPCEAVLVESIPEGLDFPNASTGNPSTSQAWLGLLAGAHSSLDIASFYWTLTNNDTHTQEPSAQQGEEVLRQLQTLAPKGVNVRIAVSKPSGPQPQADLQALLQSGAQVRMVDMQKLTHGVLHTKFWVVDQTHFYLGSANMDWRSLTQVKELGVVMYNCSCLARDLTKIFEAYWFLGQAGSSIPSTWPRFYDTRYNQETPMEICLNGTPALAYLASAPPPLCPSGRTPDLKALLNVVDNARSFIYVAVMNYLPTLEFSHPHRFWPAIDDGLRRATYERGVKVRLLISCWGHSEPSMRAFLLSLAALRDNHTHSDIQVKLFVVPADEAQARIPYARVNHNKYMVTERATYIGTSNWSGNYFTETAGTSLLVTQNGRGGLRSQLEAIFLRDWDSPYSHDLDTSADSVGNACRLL
Experimental: as §1, §2, §3

[1] = HPLC assay for solution reactivity of sulfonyl triazole fragments with p-cresol; assay type: physicochemical; conditions: HPLC assay, TMG base
Experimental: HPLC Assay for Profiling Solution Reactivity and Stability of Sulfonyl Triazole Fragments
The following reagents were prepared and stored on ice prior to use. 0.1 M solution of caffeine in acetonitrile, 1.0 M solution of n-butylamine, p-cresol, tetramethylguanidine […], 1 M HOAc in ACN and 10 mM solution of SuTEx fragment in DMF-ACN mixture (10:90, v/v). 500 μL of fragment solution was transferred to a dram vial on ice. To the mixture, 5.5 μL of TMG and 5.5 μL of p-cresol or n-butylamine was added and solutions were stirred on ice for 6 h. To monitor reactivity, 50 μL aliquots were removed at indicated time points and quenched with 10 μL of a 1:1 mixture of caffeine and HOAc. Samples were injected (1 μL) and analyzed by reverse-phase HPLC on a Shimadzu 1100 Series spectrometer (Shimadzu, Kyoto, Japan) with UV detection at 254 nm. Reaction progress was evaluated by monitoring consumption of starting material (SuTEx fragment) normalized to caffeine standard. Chromatographic separation was performed using a Phenomenex Kinetex C18 column (2.6 μm, 50×4.6 mm) (Phenomenex, Torrance, California, United States of America). Mobile phases A and B were composed of H2O+0.1% HOAc and ACN+0.1% HOAc, respectively. Samples were analyzed using the following analytical conditions: using a flow rate of 0.8 ml min^−1, the gradient was as follows: 0-0.5 min, 15% B; 0.5-6.5 min 85% B; 6.5-7 min 100% B: 7-8.5 min 100% B; 8.5-9 min 15% B; 9-9.8 min 15% B.

[2] = molecular target: T6, recombinant GSTP1 lysates (Homo sapiens, UniProt P09211); experiment: GSTP1 biochemical substrate assay (GSH conjugation to BDNB)
T6 construct: FLAG (C); host or cells: HEK293T, transient transfection; soluble proteome used unpurified
T6 sequence (P09211 whole entry): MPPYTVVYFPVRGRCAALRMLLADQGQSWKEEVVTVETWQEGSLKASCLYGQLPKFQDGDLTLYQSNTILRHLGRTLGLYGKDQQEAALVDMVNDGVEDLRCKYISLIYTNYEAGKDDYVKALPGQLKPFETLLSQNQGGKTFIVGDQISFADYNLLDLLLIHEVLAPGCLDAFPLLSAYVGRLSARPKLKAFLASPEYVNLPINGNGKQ
Experimental: GSTP1 Biochemical Substrate Assay
Recombinant GSTP1-HEK293T soluble cell proteomes were diluted to 1 mg ml^−1 in assay buffer (100 mM NaH2PO4, pH 7.0). Samples were treated with inhibitor at indicated concentrations for 30 min at 37° C. GSH stock solution (250 mM in water) was diluted to 4 mM in assay buffer and 25 μl of diluted GSH solution was added to each sample. A substrate stock solution of 75 mM 1-bromo-2,4-dinitrobenzene […] in ethanol was diluted to 2 mM in assay buffer. Samples (25 μl) were aliquoted into a 96-well plate and spun briefly via centrifuge. Next, 50 μl of 2 mM BDNB was added to each well and the reaction was monitored in kinetic mode by measuring absorbance at 340 nm for 10 min on a BMG Labtech CLARIOstar plate reader (BMG Labtech, Cary, North Carolina, United States of America).

human GSTP1 (hGSTP1) = molecular target: T7, human GSTP1 (hGSTP1) (Homo sapiens, UniProt P09211); experiment: Gel-based competitive chemical proteomic screen with HHS-482, recombinant hGSTP1-HEK293T soluble proteomes; assay type: binding; conditions: fragment 50 μM, 30 min, 37° C.
T7 construct: FLAG (C); host or cells: HEK293T, transient transfection; soluble proteome used unpurified
T7 sequence (P09211 whole entry, the tested form may be a part): as the sequence (P09211 whole entry) above
Experimental: as §4, §5

GSTP1 = molecular target: T8, GSTP1 (Homo sapiens, UniProt P09211); experiment: Gel-based evaluation of proteomes from recombinant GSTP1-HEK293T cells treated with SuTEx fragments; assay type: cell-based; conditions: 50 μM compounds, 4 hr
T8 construct: FLAG (C); expressed in transfected cells; host or cells: HEK293T
T8 sequence (P09211 whole entry, the tested form may be a part): as the sequence (P09211 whole entry) above
Experimental: as §5
(§6) Cells grown to ˜90% confluency in 10 cm plates were treated with DMSO vehicle or SuTEx fragment (10 μl of 1,000× stock) in serum-free media for the indicated concentrations and times at 37° C. with 5% CO2. After treatment, cells were washed with cold PBS twice before collection and preparation for gel-based chemical proteomic evaluation as described above. For LC-MS studies, protein concentrations were normalized to 2.3 mg ml^−1 and 432 μl (for 1 mg final protein amount) were used for sample preparation as detailed below.

GSTP1 Y8 = molecular target: T9, GSTP1 Y8 (Homo sapiens, UniProt P09211); experiment: Quantitative chemical proteomics of live SILAC DM93 cells treated with SuTEx fragments; assay type: cell-based; conditions: 50 μM compound, 1.5 hr, 37° C.
T9 construct: endogenous in cells; host or cells: DM93 melanoma cells (SILAC)
T9 sequence (P09211 whole entry, the tested form may be a part): as the sequence (P09211 whole entry) above
Experimental: Live Cell Evaluation of Sulfonyl-Triazole Fragments
as §6, §1
Next, SILAC DM93 cells were treated with JWB152 or JWB198 to determine whether these SuTEx fragments could ligand Y8 of endogenous GSTP1 in living systems (50 μM compound, 1.5 hr, 37° C.). Cells were pretreated with DMSO vehicle or SuTEx fragments followed by cells lysis, HHS-482 labeling of proteomes, and quantitative chemical proteomics.

EDC3, sequence (Q96F86 whole entry): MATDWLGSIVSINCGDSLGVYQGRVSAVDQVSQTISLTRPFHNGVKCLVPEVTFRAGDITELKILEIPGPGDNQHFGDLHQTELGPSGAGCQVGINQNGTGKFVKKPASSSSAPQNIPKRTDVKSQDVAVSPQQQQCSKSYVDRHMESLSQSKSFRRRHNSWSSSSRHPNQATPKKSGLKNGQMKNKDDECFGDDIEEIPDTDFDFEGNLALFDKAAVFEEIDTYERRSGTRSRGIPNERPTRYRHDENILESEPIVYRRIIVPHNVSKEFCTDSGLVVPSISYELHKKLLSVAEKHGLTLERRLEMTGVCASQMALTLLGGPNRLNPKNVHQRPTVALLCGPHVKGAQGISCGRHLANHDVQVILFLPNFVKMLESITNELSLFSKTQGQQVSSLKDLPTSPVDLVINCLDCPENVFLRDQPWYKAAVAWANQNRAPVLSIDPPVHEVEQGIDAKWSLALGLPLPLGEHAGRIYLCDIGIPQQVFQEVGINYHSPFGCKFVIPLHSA

tyrosine residue of EDC3 modified (EDC3): 475
Compound: N#Cc1ccc(S(=O)(=O)n2cc(-c3cccc(Cl)c3)nn2)cc1 [EKT231]

SILAC ratio (SR) at tyrosine competed site YWHAE Y49 (YWHAE (Y49)): > 6
blockade of DPP3 probe (HHS-482) labeling (human DPP3 (hDPP3)): ~50%
fold difference in potency against DPP3, JWB142 vs SuFEx-3 (purified DPP3; JWB142 more potent than SuFEx counterpart): > 10 fold
IC50 (purified DPP3; fragment pretreatment 30 min at 37° C., n=3, read-out: IC50, blockade of DPP3 catalytic (peptidase) activity): 17 µM
SILAC ratio (SR), DPP3 Y417 (DPP3 Y417): 2.4
blockade of HHS-482 labeling of DPP3 Y417 (site liganded) (DPP3 Y417): ~50%
Compound: COc1ccc(-c2ncn(S(=O)(=O)c3ccc(-c4ccccc4)cc3)n2)cc1 [JWB142, 1-([1,1′-Biphenyl]-4-ylsulfonyl)-3-(4-methoxyphenyl)-1H-1,2,4-triazole]
liganded tyrosine frequency (SR>4) (DM93 soluble proteomes): < 0.1%

Compound: O=S(=O)(C1CC1)n1cnc(-c2ccc(C(F)(F)F)cc2)n1 [JWB146, 1-(Cyclopropylsulfonyl)-3-(4-(trifluoromethyl)phenyl)-1H-1,2,4-triazole]
SILAC ratio (SR) at tyrosine competed site PLD3 Y437 (PLD3 (Y437)): > 6
solution reactivity with p-cresol [1]: largely unreactive
inhibitory activity against GSTP1 ([2]; negative control probes, highest concentration tested 100 μM): lack of activity; also recorded: did not show inhibitory activity

IC50 ([2]; inhibitor 30 min at 37° C., n=3, read-out: IC50, in vitro potency against GSTP1 by GSH substrate assay): 23 µM
HHS-482 labeling of GSTP1 after live cell treatment (GSTP1): reduced HHS-482 labeling
blockade of HHS-482 labeling of native GSTP1 Y8 in live cells (GSTP1 Y8): ~20%
competition against recombinant DPP3 (human DPP3 (hDPP3); also substantial proteome cross-reactivity): potent competition
Compound: N#Cc1ccc(S(=O)(=O)n2cnc(-c3ccc(C(F)(F)F)cc3)n2)cc1 [JWB152, 4-((3-(4-(Trifluoromethyl)phenyl)-1H-1,2,4-triazol-1-yl)sulfonyl)benzonitrile]
block of HHS-482 labeling of GSTP1 (human GSTP1 (hGSTP1)): block HHS-482 labeling to levels comparable with Y8F mutant
